Measurements taken from US10183015B2, “Heterocyclic compounds and methods of use” (Medivation Technologies LLC, priority 2015, dated 2019).
Several values for one entry are separate records, joined by “and”; a condition that tells them apart may be missing. Equal entries are not always repeated.

How the values were obtained:
Assay type in all cases: in vivo
SCAP = assay: DIN mouse model: hepatic SCAP gene expression; parameters: key to 2^DDct: expression relative to vehicle group, normalized to 18S; settings: 20 mg/kg group; for 18S: Gene Expression: SCAP table, 18S reference; for 2^DDct / DDct / Dct / SCAP: Gene Expression: SCAP
Procedure: (§1) Gene expression analysis. Hepatic expression levels of genes involved in lipid metabolism (FAS, SREBP1, ACC1, SCD1), cholesterol metabolism (HMG-CoAR, LDLR), SREBP proteolysis (SCAP, INSIG1), ER stress (PERK), oxidative stress (NRF2), inflammation (MCP-1), and fibrosis (collagen 1α1) were quantified by RTqPCR. Expression level was normalized to 18S gene expression and relative expression to vehicle group was calculated with the […] method.
(§2) Male C57Bl/6J mice (8 weeks old) were housed in enriched ventilated cages (31×12.5×12.7 cm) throughout the experimental phase. Animals' cages litters were changed at least once a week. Animal were housed 5 per cage on inverted 12-hour light cycle (at 09:00 am lights off), 22±2° C. and 55±10% relative humidity. The acclimation period was 20 days. During the acclimation period, all mice were fed a standard diet (RM1 (E) 801492, SDS) and tap water ad libitum. After the acclimation period, mice were fed with the DIN diet (60% fat, cholesterol enriched) and fructose-enriched tap water ad libitum until the end of the experiment.
(§3) At 6 weeks of diet, mice were 4-hour fasted (09:00 am to 1:00 pm) and blood (150 μl/EDTA) was collected at 01:00 pm by retro-orbital bleeding under isoflurane anesthesia. Mice were then allocated in 2 homogenous groups (n=12/group) according to their plasma levels of ALT (average levels: 685U/L), AST (average levels: 627U/L) and HOMA-IR index (average value: 4.7), into 2 homogenous groups (see values at day 0 in Tables 15A and 15B ALT/AST and Tables 16A and 16B for HOMA-IR). Mice were then treated once daily by oral gavage with vehicle (Group 1) or Compound #37 at 20 mg/kg (Group 2) for 70 days.
Hepatic expression levels of genes involved in lipid (FAS, SREBP1, ACC1, SCD1), cholesterol metabolism (HMG-CoAR, LDLR), in SREBP proteolysis (SCAP, INSIG1), in ER stress (PERK), oxidative stress (NRF2), and inflammation (MCP-1) were not changed. However, expression of collagen 1α1, involved in liver fibrosis, was reduced by 66% in mice treated with Compound #37 (p<0.05 vs. vehicle).

[1] = tested on: diet-induced NASH obese insulin resistant mice; assay: DIN mouse model: liver oil red O staining (% labeling)
Procedure: as §2, §3
Slides having a single hepatic lobe section stained with H&E and […] were digitized using a Nanozoomer from Hamamatsu. Sections were evaluated with knowledge of groups. […]

Coll1a1 = assay: Short-term Paigen-diet NASH mouse model: hepatic Coll1a1 (collagen 1α1) gene expression (RT-qPCR); parameters: key to Fibrosis gene expression Coll1a1: Dct: Ct of gene minus Ct of 18S reference; key to Fibrosis gene expression Coll1a1: 2DDct: expression relative to vehicle group, 2^-ΔΔCt method, 18S-normalized; settings: 21 days
Procedure: (§4) To investigate whether Compound #37 prevents the development of pathology associated with NASH and steatosis in an acute exploratory disease model, a study was conducted using a diet-induced acute liver steatosis model in mice. As described below, in this study, C57BL/6J mice were initiated on the Paigen diet and simultaneously treated with Compound #37 (5, 20, and 40 mg/kg/day) or vehicle control (20% HPβCD 10 mL/kg/day) by oral gavage for 21 days.
(§5) After acclimation, 8-week old male C57Bl/6J mice (Charles River) weighing about 25 g were randomized in 4 groups according their body weight and treated once daily around noon by oral gavage with vehicle, or Compound #37 at various for 21 days as follows: Group 1: vehicle-20% (2-hydroxypropyl)-β-cyclodextrin (HP-β-CD) (n=10); Group 2: Compound #37, 5 mg/kg (n=10) Group 3: Compound #37, 20 mg/kg (n=10) Group 4: Compound #37, 40 mg/kg (n=10). During the treatment period, body weight and food intake (measured over 24h) were measured 3 times per week and once a week, respectively. During the acclimation, all mice were fed a standard diet (Special Diets Services RM1 (E), product no. 801492) and tap water ad libitum. After the acclimation period, mice were fed until the end of the experiment with a 60% high fat Paigen diet (60 kcal % fat, 1.25% cholesterol, and 0.5% cholate; D11061901, Research Diet) and tap water ad libitum.
as §1

ACC1 = assay: Short-term Paigen-diet NASH mouse model: hepatic ACC1 gene expression (RT-qPCR); settings: liver, 21 days; for DDct: ACC1 Dct relative to vehicle mean; for Dct: ACC1 minus 18S; for 2DDct: ACC1 relative expression to vehicle group, normalized to 18S; for ACC1: raw RT-qPCR value
Procedure: as §4, §5, §1

[2] = Compound #37 5 mg/kg, group mean, n=8
[3] = Compound #37 5 mg/kg, individual animals, 5 mg/kg
[4] = Compound #37 20 mg/kg, group mean, n=6
[5] = Compound #37 20 mg/kg, individual animals, 20 mg/kg

CC(C)Cc1cc(-c2nc(-c3ccc(NS(=O)(=O)C(F)(F)F)cc3Cl)cs2)ccn1 [Compound 37, N-(3-chloro-4-(2-(2-isobutylpyridin-4-yl)thiazol-4-yl)phenyl)-1,1,1-trifluoromethanesulfonamide]
18S (SCAP; individual animal, 20 mg/kg): 12.55 (2×) and 12.84 and 12.43 and 12.35 (2×) and 12.59 and 11.73 and 12.51 and 11.5 and 11.55
18S (SCAP; mean, n 11): 12.3
2^DDct (SCAP; individual animal, 20 mg/kg): 1.37 and 1.72 (2×) and 0.65 and 0.71 and 0.91 and 1.46 and 1.39 and 0.64 and 0.59 and 1.60
DDct (SCAP; individual animal, 20 mg/kg): −0.45 and −0.78 (2×) and 0.63 and 0.49 and 0.13 and −0.54 and −0.47 and 0.65 and 0.77 and −0.68
Dct (SCAP; individual animal, 20 mg/kg): 11.61 and 11.28 (2×) and 12.69 and 12.55 and 12.19 and 11.52 and 11.59 and 12.71 and 12.83 and 11.38
SCAP (SCAP; individual animal, 20 mg/kg): 24.16 and 23.83 and 25.53 and 24.98 and 24.54 and 24.11 and 23.32 and 23.79 and 24.21 and 24.38 and 23.73
2^DDct (SCAP; mean, n 11): 1.16
DDct (SCAP; mean, n 11): −0.10
Dct (SCAP; mean, n 11): 12.0
SCAP (SCAP; mean, n 11): 24.2
O red Oil labeling ([1]; 20 mg/kg group, mean, n 11): 12.1%
O red Oil labeling ([1]; 20 mg/kg, individual animals): 12.9% and 15.1% and 0.9% and 18.6% and 19.3% and 21.3% and 0.3% and 8.3% and 19.5% and 13.0% and 4.2%
Fibrosis gene expression Coll1a1: 2DDct (Coll1a1; 5 mg/kg, group mean, n 10): 0.88
Fibrosis gene expression Coll1a1: Coll1a1 (Coll1a1; 5 mg/kg, group mean, n 10): 27.2
Fibrosis gene expression Coll1a1: DDct (Coll1a1; 5 mg/kg, group mean, n 10): 0.84
Fibrosis gene expression Coll1a1: Dct (Coll1a1; 5 mg/kg, group mean, n 10): 15
Fibrosis gene expression Coll1a1: 2DDct (Coll1a1; 5 mg/kg, individual animals): 0.86 and 0.27 and 0.96 and 0.69 and 0.15 and 0.05 and 1.75 and 2.26 and 1.2 and 0.57
Fibrosis gene expression Coll1a1: Coll1a1 (Coll1a1; 5 mg/kg, individual animals): 27.81 and 29.15 and 25.8 and 28.03 and 28.92 and 31.82 and 24.93 and 24.75 and 25.01 and 26.07
Fibrosis gene expression Coll1a1: DDct (Coll1a1; 5 mg/kg, individual animals): 0.21 and 1.9 and 0.05 and 0.54 and 2.75 and 4.33 and −0.81 and −1.18 and −0.27 and 0.81
Fibrosis gene expression Coll1a1: Dct (Coll1a1; 5 mg/kg, individual animals): 14.4 and 16.04 and 14.19 and 14.68 and 16.89 and 18.47 and 13.33 and 12.96 and 13.87 and 14.95
Fibrosis gene expression Coll1a1: 2DDct (Coll1a1; 20 mg/kg, group mean, n 5): 0.68
Fibrosis gene expression Coll1a1: Coll1a1 (Coll1a1; 20 mg/kg, group mean, n 6): 26.6
Fibrosis gene expression Coll1a1: DDct (Coll1a1; 20 mg/kg, group mean, n 6): 0.24
Fibrosis gene expression Coll1a1: Dct (Coll1a1; 20 mg/kg, group mean, n 6): 14.4
Fibrosis gene expression Coll1a1: 2DDct (Coll1a1; 20 mg/kg, individual animals): 0.28 and 0.85 and 0.66 and 1 and 0.61 and 3.91*
Fibrosis gene expression Coll1a1: Coll1a1 (Coll1a1; 20 mg/kg, individual animals): 28.9 and 26.66 and 26.93 and 27.17 and 26.34 and 23.43
Fibrosis gene expression Coll1a1: DDct (Coll1a1; 20 mg/kg, individual animals): 1.85 and 0.23 and 0.59 and 0 and 0.71 and −1.97
Fibrosis gene expression Coll1a1: Dct (Coll1a1; 20 mg/kg, individual animals): 15.99 and 14.37 and 14.73 and 14.14 and 14.85 and 12.17
DDct (ACC1; [2]): 0.81
DDct (ACC1; [3]): 1.08 and 0.78 and 1.88 and 3.12 and −0.53 and −0.87 and 1.01 and 0.01
DDct (ACC1; [4]): 2.71
DDct (ACC1; [5]): 0.6 and 7.15 and 3.66 and 0.46 and 3.91 and 0.45
Dct (ACC1; [2]): 18.7
Dct (ACC1; [3]): 19 and 18.7 and 19.8 and 21.04 and 17.39 and 17.05 and 18.93 and 17.93
Dct (ACC1; [4]): 20.6
Dct (ACC1; [5]): 18.52 and 25.07 and 21.58 and 18.38 and 21.83 and 18.37
2DDct (ACC1; [2]): 0.78
2DDct (ACC1; [3]): 0.47 and 0.58 and 0.27 and 0.12 and 1.44 and 1.83 and 0.5 and 0.99
2DDct (ACC1; [4]): 0.38
2DDct (ACC1; [5]): 0.66 and 0.01 and 0.08 and 0.73 (2×) and 0.07
ACC1 (ACC1; [2]): 30.9
ACC1 (ACC1; [3]): 32.46 and 31.81 and 31.41 and 34.39 and 28.99 and 28.84 and 30.07 and 29.05
ACC1 (ACC1; [4]): 32.8
ACC1 (ACC1; [5]): 31.43 and 37.36 and 33.78 and 31.41 and 33.32 and 29.63
